# What was measured:
# diabetic rats = conditions: cited from earlier work
# diabetic nephropathy = conditions: 24 months of treatment; cited from earlier work
# inflammatory pain = conditions: rats, intrathecal or intraperitoneal administration; cited from earlier work
# glaucoma patients = conditions: cited from earlier work
# thermal induced pain = conditions: rats, intraperitoneal administration; cited from earlier work
# lumbar disc herniation = conditions: humans; cited from earlier work
# [1] = tested on: DOCA-salt induced hypertension; conditions: rats; cited from earlier work
# healthy adults = experiment: Phase 1 trials, waking EEG; type: in vivo, human
# normal volunteers = experiment: Afternoon nap model of insomnia in normal volunteers; type: in vivo, human
# Source text: APD125, a potent and selective 5-HT2A serotonin receptor inverse agonist is a member of the genus disclosed in the European Patent EP1558582. […] Sleep onset latency was not decreased by APD125. In the afternoon nap model, APD125 decreased microarousals, the number of sleep stage shifts, and number of awakenings after sleep onset.
# insomnia patients = experiment: Phase 2 trial, measurements of sleep maintenance versus placebo; type: in vivo, human
# Source text: The data from the APD125 Phase 2 study are consistent with Phase 1 data and support further development of APD125 for the treatment of insomnia patients who have difficulty maintaining sleep.
# 5-HT2A = 5-HT2A (Homo sapiens, UniProt P28223); conditions: cited from earlier work
# 5-HT2A, sequence (P28223 whole entry, species assumed): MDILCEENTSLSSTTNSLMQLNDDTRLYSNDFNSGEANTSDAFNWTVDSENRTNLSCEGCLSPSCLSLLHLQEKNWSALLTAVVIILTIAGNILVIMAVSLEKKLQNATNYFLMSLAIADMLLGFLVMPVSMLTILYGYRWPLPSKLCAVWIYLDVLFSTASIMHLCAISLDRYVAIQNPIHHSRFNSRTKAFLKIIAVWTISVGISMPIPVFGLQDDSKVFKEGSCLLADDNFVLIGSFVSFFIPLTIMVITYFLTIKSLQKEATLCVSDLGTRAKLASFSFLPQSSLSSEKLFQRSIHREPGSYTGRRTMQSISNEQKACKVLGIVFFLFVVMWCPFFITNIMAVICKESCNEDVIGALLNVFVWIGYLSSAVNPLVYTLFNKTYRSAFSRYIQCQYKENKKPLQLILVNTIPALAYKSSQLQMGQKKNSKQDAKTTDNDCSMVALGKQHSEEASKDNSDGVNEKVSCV
# JC virus = conditions: cited from earlier work
# [2] = tested on: spontaneously hypertensive rats; conditions: cited from earlier work
# heatstroke = conditions: in vivo; cited from earlier work
smiles,measurement,setting,value
O=CN1CCC(C(=O)NCCN2CCC(=C3c4ccccc4C=Cc4ccccc43)CC2)CC1 [AT-1015],14.9% reduction in saphenous sensory conduction velocity,diabetic rats,completely reversed
same,44.7% reduction in sciatic endoneurial blood flow,diabetic rats,completely reversed
COc1cccc(CCc2ccccc2OCC(CN(C)C)OC(=O)CCC(=O)O)c1 (stereo not drawn) [sarpogrelate],urinary albumin excretion level,diabetic nephropathy,significantly reduced
same,analgesic effect on inflammatory pain,inflammatory pain,significant analgesic effect
same,IOP,glaucoma patients,significantly lower
same,analgesic effect on thermal induced pain,thermal induced pain,significant analgesic effect
same,"lower back pain, leg pain and numbness associated with sciatica",lumbar disc herniation,effective treatment
same,14.9% reduction in saphenous sensory conduction velocity,diabetic rats,completely reversed
same,44.7% reduction in sciatic endoneurial blood flow,diabetic rats,completely reversed
CN1CCN2c3ccccc3Cc3ccccc3C2C1 (stereo not drawn) [Mainserin],DOCA-salt induced hypertension,[1],prevent
COc1ccc(NC(=O)Nc2ccc(F)cc2F)cc1-c1c(Br)cnn1C [APD125],dose of maximal vigilance-lowering effects on waking EEG,healthy adults,40 to 80 mg
same,effects on waking EEG,healthy adults,vigilance-lowering effects on waking EEG
same,time of peak effects after dosing,healthy adults; after dosing,2 to 4 h
same,REM sleep,normal volunteers; afternoon nap model,at the expense of REM sleep
same,microarousals,normal volunteers; afternoon nap model,decreased
same,number of awakenings after sleep onset,normal volunteers; afternoon nap model,decreased
same,number of sleep stage shifts,normal volunteers; afternoon nap model,decreased
same,sleep onset latency,normal volunteers; afternoon nap model,not decreased
same,slow wave sleep and associated parameters,normal volunteers; primarily during the early part of sleep,increased slow wave sleep and associated parameters in a dose-dependent manner
same,next day cognitive effects,insomnia patients; Phase 2,without any limiting next day cognitive effects
same,measurements of sleep maintenance,"insomnia patients; Phase 2, compared to placebo",statistically significant improvements
Cc1nc2sccn2c(=O)c1CCN1CCC(=C(c2ccc(F)cc2)c2ccc(F)cc2)CC1 [ritanserin],inverse agonist activity at 5-HT2A,5-HT2A,have inverse agonist activity
same,JC virus infection of human glial cells,JC virus,inhibited
same,14.9% reduction in saphenous sensory conduction velocity,diabetic rats,completely reversed
same,44.7% reduction in sciatic endoneurial blood flow,diabetic rats,completely reversed
O=C(c1ccc(F)cc1)C1CCN(CCn2c(=O)[nH]c3ccccc3c2=O)CC1 [ketanserin],blood pressure,[2],stabilize blood pressure
same,inverse agonist activity at 5-HT2A,5-HT2A,have inverse agonist activity
same,IOP,glaucoma patients,significantly lower
same,JC virus infection of human glial cells,JC virus,inhibited
same,protection during heatstroke,heatstroke,"protect against circulatory shocks, intracranial hypertension, and cerebral ischemia"
